From patent publication US20120015925A1, “NOVEL BENZOTHIAZEPINE AND BENZOTHIEPINE COMPOUNDS” (ASAHI KASEI PHARMA CORPORATION, priority 2004, published 2012)

Key:
rats dosed cholic acid = assay: Lowering effect on bile acid concentrations in portal vein blood in rats dosed cholic acid; type: in vivo, rat
Experimental: In the present Test Example, a lowering effect on bile acid concentrations in portal vein blood in rats dosed cholic acid was evaluated according to the method described in Jpn. Pharmacol. Ther., Vol. 24 Supplement, 1996, 103(S-577)-110(S-584).
That is, SD (IGS) strain male rats at 7 to 9 weeks of age were fasted one day before the administration date. […] The blood was collected from the portal vein 2 hours after the forced oral administration, and a total bile acid value in serum was measured to examine the effect of the test compound (n=6). As a control, another group (n=6) merely received cholic acid (200 mg/kg), to which the same procedure was applied. The cholic acid value was measured using the commercially available kit (brand name: Total Bile Acid-Test Wako, supplied form Wako Pure Chemical Industries). Defining the value in the control group to which no test compound had been administered as being 100%, a reduction rate (%) of the bile acid value when a certain amount of the test compound had been administered was calculated.

human IBAT = molecular target: T1, human IBAT (Homo sapiens, UniProt Q12908); assay: In vitro assay using Cos 7 cells, transiently expressed human IBAT; type: cell-based; details: [3H]-taurocholate 8 μM uptake, 37° C., 60 minutes
T1 sequence (Q12908 1-348): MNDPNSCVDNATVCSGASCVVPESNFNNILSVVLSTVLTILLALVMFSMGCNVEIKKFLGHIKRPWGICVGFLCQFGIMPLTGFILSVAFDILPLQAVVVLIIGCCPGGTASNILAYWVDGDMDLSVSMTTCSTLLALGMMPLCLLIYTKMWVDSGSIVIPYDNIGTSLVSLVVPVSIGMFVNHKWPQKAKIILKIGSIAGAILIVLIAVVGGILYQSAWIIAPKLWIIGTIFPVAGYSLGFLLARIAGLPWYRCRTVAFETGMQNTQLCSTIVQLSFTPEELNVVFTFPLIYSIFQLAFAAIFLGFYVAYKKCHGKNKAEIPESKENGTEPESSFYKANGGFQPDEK
Experimental: In the present Test Example, an in vitro assay of compounds using Cos 7 cells as to inhibitory activity on transiently expressed human IBAT or rat IBAT transporter was performed according to the method described in Am. J. Physiol., 274, G157-169.
That is, […] cells/well of Cos 7 cells were seeded in a 24-well plate, and after one day, the cells were transfected with 0.3 μg/well of cDNA of human IBAT or rat IBAT using FuGENE6 (supplied from Roche). After culturing for one day after the transfection, the cells were washed once with the assay buffer, i.e., Hanks buffer containing 25 mM glucose and 10 mM HEPES (pH 7.4). The assay buffer was then replaced with the assay buffer containing the test compound. [^3H]-Taurocholate at a final concentration of 8 μM was added thereto and incubated at 37° C. for 60 minutes so that [^3H]-taurocholate was taken into Cos 7 cells by the action of human IBAT or rat IBAT. The cells were washed twice with the assay buffer containing 1 mM taurocholate, and subsequently lysed with 0.2 M NaOH to stop the reaction. The cell lysate was added to 4 mL of liquid scintillation cocktail, which was then thoroughly vortexed. Then the radioactivity was measured using the liquid scintillation counter.

Caco-2 cell = assay: Gastrointestinal toxicity: cytotoxicity against Caco-2 cell (LDH activity); type: cell-based, human; details: for CELL TOXICITY AGAINST Caco2 10 μM / CELL TOXICITY AGAINST Caco2 30 μM / CELL TOXICITY AGAINST Caco2 3 μM: 2 hours, LDH activity in medium relative to cell lysis agent = 100%
Experimental: That is, 10,000 cells/well of Caco-2 cells (purchased from ATCC) were seeded in a 96-well plate [MEM-E medium, 10% FBS (Fetal Bovine Serum), 1% NEAA (Non Essential Amino Acid) solution, supplied from Gibco]. After culturing for 48 hours, the test compound diluted with the medium was added to each well. After 2 hours, 50 μL of the medium was collected, and an LDH activity in the medium was measured using an LDH activity measurement kit (CytoTox96 Non-Radioactive Cytotoxicity Assay, supplied from Promega). Defining the LDH activity of the Caco-2 cells treated with a cell lysis agent as being 100%, the relative activity was calculated as a index of the cytotoxicity.

[1] = 0.1 mg/kg oral with cholic acid 200 mg/kg, portal vein serum total bile acid 2 hours after, control = 100%, surfactant HCO-60 (##)

SMILES	IC50 (human IBAT) [µM]	CELL TOXICITY AGAINST Caco2 10 μM (Caco-2 cell) [%]	CELL TOXICITY AGAINST Caco2 30 μM (Caco-2 cell) [%]	also measured
CCCCC1(CCCC)CS(=O)(=O)c2ccc(N(C)C)cc2C(c2cccc(NC(=S)Nc3ccc(C[N+](C)(C)CCOCCO)cc3)c2)N1.[Br-] (racemic) [EXAMPLE 3475]	–	–	–	BILE ACID REDUCTION RATE (%) IN RAT MODEL WITH CHOLIC ACID LOADING (rats dosed cholic acid; [1]): 19%
CCCCC1(CCCC)CS(=O)(=O)c2ccc(N(C)C)cc2C(c2cccc(NC(=S)Nc3ccccc3C[N+]34CCC(CC3)CC4)c2)N1.[Br-] (stereo not shown) [EXAMPLE 4905]	–	–	–	BILE ACID REDUCTION RATE (%) IN RAT MODEL WITH CHOLIC ACID LOADING (rats dosed cholic acid; [1]): 28%
CCCCC1(CCCC)CS(=O)(=O)c2ccc(N(C)C)cc2C(c2cccc(NC(=S)Nc3ccc(C[N+]45CCC(c6ccccc6)(CC4)CC5)cc3Cl)c2)N1.[Br-] (stereo not shown) [EXAMPLE P344]	0.019	<1	<1	–
CCCCCC1(CCCCC)CS(=O)(=O)c2ccc(N(C)C)cc2C(c2cccc(NC(=S)Nc3ccc(CC[N+](C)(C)Cc4ccccc4)cc3)c2)N1.[Br-] (racemic) [EXAMPLE 5856]	–	<1	<1	CELL TOXICITY AGAINST Caco2 3 μM (Caco-2 cell): <1%
CCCCC1(CCCC)CS(=O)(=O)c2ccc(N(C)C)cc2C(c2cccc(NC(=S)Nc3ccc(C[N+]45CCC(c6ccccc6)(CC4)CC5)cc3C)c2)N1.[Br-] (stereo not shown) [EXAMPLE P340]	0.028	<1	<1	–
CCCCC1(CCCC)CS(=O)(=O)c2ccc(N(C)C)cc2C(c2ccc(NC(=S)Nc3ccc(C[N+](C)(C)Cc4ccccc4)cc3)cc2)N1.[Br-] (stereo not shown) [Example 5405, Benzyl-(4-{3-[4-(3,3-dibutyl-7-dimethylamino-1,1-dioxo-2,3,4,5-tetrahydro-1,4-benzothiazepine-5-yl)phenyl]thioureido}benzyl)dimethylammonium bromide]	–	–	–	BILE ACID REDUCTION RATE (%) IN RAT MODEL WITH CHOLIC ACID LOADING (rats dosed cholic acid; po, 0.1 mg/kg, 2 h): 16%
CCCCC1(CCCC)CS(=O)(=O)c2ccc(N(C)C)cc2C(c2cccc(NC(=S)Nc3ccc(C[N+]45CCC(c6ccccc6)(CC4)CC5)c(C(F)(F)F)c3)c2)N1.[Br-] (stereo not shown) [EXAMPLE P348]	0.022	<1	<1	–
CCCCCC1(CCCCC)CS(=O)(=O)c2ccc(N(C)C)cc2C(c2cccc(NC(=S)Nc3ccc(C[N+](C)(C)Cc4ccccc4)cc3)c2)N1.[Br-] (stereo not shown) [EXAMPLE 5480]	–	<1	<1	CELL TOXICITY AGAINST Caco2 3 μM (Caco-2 cell): <1%
CCCCC1(CCCC)CS(=O)(=O)c2ccc(N(C)C)cc2C(c2cccc(NC(=S)Nc3ccc(C[n+]4ccc(C)cc4)cc3)c2)N1.[Br-] (stereo not shown) [EXAMPLE 3709]	0.049	<1	<1	CELL TOXICITY AGAINST Caco2 3 μM (Caco-2 cell): <1%
CCCCC1(CCCC)CS(=O)(=O)c2ccc(N(C)C)cc2C(c2cccc(NC(=S)NCCCC[N+](C)(C)Cc3ccccc3)c2)N1.[Br-] (stereo not shown) [EXAMPLE 801]	–	–	–	BILE ACID REDUCTION RATE (%) IN RAT MODEL WITH CHOLIC ACID LOADING (rats dosed cholic acid; 0.1 mg/kg oral, surfactant HCO-60 0.1%, cholic acid 200 mg/kg, portal vein blood 2 hours after administration): 33%
CCCCC1(CCCC)CS(=O)(=O)c2ccc(N(C)C)cc2C(c2cccc(NC(=S)Nc3ccc(C[N+]45CCC(c6ccccc6)(CC4)CC5)c(Cl)c3)c2)N1.[Br-] (stereo not shown) [EXAMPLE P345]	0.023	<1	<1	–
CCCCc1ccc[n+](Cc2ccc(NC(=S)Nc3cccc(C4NC(CCCC)(CCCC)CS(=O)(=O)c5ccc(N(C)C)cc54)c3)cc2)c1.[Br-] (stereo not shown) [EXAMPLE 3723]	0.025	<1	<1	CELL TOXICITY AGAINST Caco2 3 μM (Caco-2 cell): <1%
CCCCC1(CCCC)CS(=O)(=O)c2ccc(N(C)C)cc2C(c2ccc(OCc3ccc(C[N+]45CCN(CC4)CC5)cc3)cc2)N1.[Cl-] (stereo not shown) [Comparative Example, 1-{4-[4-(3,3-dibutyl-7-dimethylamino-1,1-dioxo-2,3,4,5-tetrahydro-1,4-benzothiazepine-5-yl)phenoxymethyl]benzyl}-4-aza-1-azoniabicyclo[2.2.2]octane chloride, reference compound]	–	–	–	cytotoxicity to the Caco-2 cell (Caco-2 cell; LDH activity in medium after 2 hours): exhibited the cytotoxicity to the small intestine epithelial cell line at low concentrations
CCCCC1(CCCC)CS(=O)(=O)c2ccc(N(C)C)cc2C(c2ccc(NC(=S)Nc3cccc(C[N+]45CCC(CC4)CC5)c3)cc2)N1.[Br-] (stereo not shown) [Example 5406, 1-(3-{3-[4-(3,3-dibutyl-7-dimethylamino-1,1-dioxo-2,3,4,5-tetrahydro-1,4-benzothiazepine-5-yl)phenyl]thioureido}benzyl)-1-azoniabicyclo[2.2.2]octane bromide]	–	–	–	BILE ACID REDUCTION RATE (%) IN RAT MODEL WITH CHOLIC ACID LOADING (rats dosed cholic acid; po, 0.1 mg/kg, 2 h): 15%
CCCCC1(CCCC)CS(=O)(=O)c2ccc(N(C)C)cc2C(c2cccc(NC(=S)Nc3ccc(C[N+]45CCN(CC4)CC5)cc3)c2)N1.[Br-] (stereo not shown) [EXAMPLE 3705]	0.054	<1	<1	CELL TOXICITY AGAINST Caco2 3 μM (Caco-2 cell): <1%
CCCCC1(CCCC)CS(=O)(=O)c2ccc(N(C)C)cc2C(c2cccc(NC(=S)Nc3ccc(C[N+]45CCC(c6ccccc6)(CC4)CC5)c(Br)c3)c2)N1.[Br-] (stereo not shown) [EXAMPLE P347]	0.024	<1	<1	–
CCCCC(CCCC)c1cc[n+](Cc2ccc(NC(=S)Nc3cccc(C4NC(CCCC)(CCCC)CS(=O)(=O)c5ccc(N(C)C)cc54)c3)cc2)cc1 (stereo not shown) [EXAMPLE 3716]	0.089	–	–	–
CCCCC1(CCCC)CS(=O)(=O)c2ccc(N(C)C)cc2C(c2cccc(NC(=S)Nc3ccc(C[N+]45CCC(CC4)CC5)c(C(F)(F)F)c3)c2)N1 (stereo not shown) [EXAMPLE P324]	0.037	–	–	–
CCCCC1(CCCC)CS(=O)(=O)c2ccc(N(C)C)cc2C(c2cccc(NC(=S)Nc3ccc(C[N+]4(CC)CCCC4)cc3)c2)N1 (stereo not shown) [EXAMPLE 3568]	0.094	–	–	–
CCCCCC1(CCCCC)CS(=O)(=O)c2ccc(N(C)C)cc2C(c2cccc(NC(=S)Nc3ccc(C[N+]45CCC(CC4)CC5)cc3)c2)N1.[Br-] (racemic) [EXAMPLE 5735]	–	<1	<1	CELL TOXICITY AGAINST Caco2 3 μM (Caco-2 cell): <1%
CCCCC1(CCCC)CS(=O)(=O)c2ccc(N(C)C)cc2C(c2cccc(NC(=S)Nc3ccc(C[n+]4ccc(NC=O)cc4)cc3)c2)N1 (racemic) [EXAMPLE 3754]	0.092	–	–	–
C=CC[N+](C)(C)Cc1ccc(NC(=S)Nc2cccc(C3NC(CCCC)(CCCC)CS(=O)(=O)c4ccc(N(C)C)cc43)c2)cc1 (stereo not shown) [EXAMPLE 3429]	0.055	–	–	–
CCCCC1(CCCC)CS(=O)(=O)c2ccc(N(C)C)cc2C(c2cccc(NC(=S)NCCC[N+]34CCC(CC3)CC4)c2)N1.[Br-] (stereo not shown) [Example 9, 1-(3-{3-[3-(3,3-dibutyl-7-dimethylamino-1,1-dioxo-2,3,4,5-tetrahydro-1,4-benzothiazepine-5-yl)phenyl]thioureido}propyl)-1-azoniabicyclo[2.2.2]octane bromide]	–	–	–	BILE ACID REDUCTION RATE (%) IN RAT MODEL WITH CHOLIC ACID LOADING (rats dosed cholic acid; 0.1 mg/kg oral, surfactant Tween 20 0.05%, cholic acid 200 mg/kg, portal vein blood 2 hours after administration): 13%
CCCCCC1(CCCCC)CS(=O)(=O)c2ccc(N(C)C)cc2C(c2cccc(NC(=S)Nc3ccc(CC[N+]45CCC(CC4)CC5)cc3)c2)N1.[Br-] (racemic) [EXAMPLE 5857]	–	<1	<1	CELL TOXICITY AGAINST Caco2 3 μM (Caco-2 cell): <1%
CCCCC1(CCCC)CS(=O)(=O)c2ccc(N(C)C)cc2C(c2cccc(NC(=S)Nc3ccc(C[n+]4ccc(-c5ccccc5)cc4)cc3F)c2)N1 (stereo not shown) [EXAMPLE P378]	0.034	–	–	–
